Consider nine compounds from the NIST ThermoML archive (doi:10.1021/je0302304).

± gives the expanded uncertainty stated by the source.

The nature of series [1]: xn = mol fraction of the nth substance listed. The note with it: 101.32 kPa, Liquid, x2 = 0.
The nature of series [2]: refractive index (Na D-line) (dimensionless); xn = mol fraction of the nth substance listed. Conditions: 101.32 kPa, Liquid, Standard Abbe refractometry, x2 = 0.
Series [3] can be described thus: refractive index (Na D-line) (dimensionless). The note with it: 101.33 kPa, Liquid, Standard Abbe refractometry.
The conditions of series [4]: 101.32 kPa, Liquid.

By mass density is commonly meant mass per unit of volume. As usually defined, the refractive index is a measure of how strongly the sample bends light. For `CCO` [ethanol] + COCCOCCOC, the mass density stood at 793.6 ± 0.5 kg/m3 in series [1] (288.15 K), 785.2 ± 0.5 kg/m3 in series [1] (298.15 K), 776.6 ± 0.5 kg/m3 in series [1] (308.15 K) and 767.9 ± 0.5 kg/m3 in series [1] (318.15 K). Further, the refractive index in series [2] (288.15 K) was determined as 1.3632 ± 0.0005; in series [2] (298.15 K) it was 1.3591 ± 0.0005; in series [2] (308.15 K), 1.3551 ± 0.0005; in series [2] (318.15 K) it was 1.3509 ± 0.0005.

For the compound `CCO` [ethanol] + COCCOCCOCCOCCOC, the mass density worked out at 793.6 ± 0.5 kg/m3 in series [1] (288.15 K), 785.2 ± 0.5 kg/m3 in series [1] (298.15 K), 776.6 ± 0.5 kg/m3 in series [1] (308.15 K) and 767.9 ± 0.5 kg/m3 in series [1] (318.15 K). In addition, the refractive index in series [2] (288.15 K) came out at 1.3632 ± 0.0003; in series [2] (298.15 K), 1.3591 ± 0.0003; in series [2] (308.15 K), 1.3551 ± 0.0003; in series [2] (318.15 K), 1.3509 ± 0.0003.

With `CCO` [ethanol], the refractive index turned out to be 1.3632 ± 0.0005 in series [3] (288.15 K), 1.3591 ± 0.0005 in series [3] (298.15 K), 1.3551 ± 0.0005 in series [3] (308.15 K) and 1.3509 ± 0.0005 in series [3] (318.15 K). The mass density in series [4] (288.15 K) came out at 793.6 ± 0.5 kg/m3; in series [4] (298.15 K), 785.2 ± 0.5 kg/m3; in series [4] (308.15 K), 776.6 ± 0.5 kg/m3; in series [4] (318.15 K), 767.9 ± 0.5 kg/m3.

`COCCOCCOCCOC` [2,5,8,11-tetraoxadodecane]: the refractive index is recorded as 1.425 ± 0.0005 in series [3] (288.15 K), 1.4209 ± 0.0005 in series [3] (298.15 K), 1.4167 ± 0.0005 in series [3] (308.15 K) and 1.4125 ± 0.0005 in series [3] (318.15 K). The mass density is 989.7 ± 0.4 kg/m3 in series [4] (288.15 K), 980.1 ± 0.4 kg/m3 in series [4] (298.15 K), 970.7 ± 0.4 kg/m3 in series [4] (308.15 K) and 961.1 ± 0.4 kg/m3 in series [4] (318.15 K).

Regarding `CCO` [ethanol] + COCCOCCOCCOC, the mass density in series [1] (288.15 K) was found to be 793.6 ± 0.5 kg/m3; in series [1] (298.15 K) it was 785.2 ± 0.5 kg/m3; in series [1] (308.15 K), 776.6 ± 0.5 kg/m3; in series [1] (318.15 K) it was 767.9 ± 0.5 kg/m3. Further, the refractive index was found to be 1.3632 ± 0.0005 in series [2] (288.15 K), 1.3591 ± 0.0005 in series [2] (298.15 K), 1.3551 ± 0.0005 in series [2] (308.15 K) and 1.3509 ± 0.0005 in series [2] (318.15 K).

`CCO` [ethanol] + COCCOC: the mass density is on record as 793.6 ± 0.5 kg/m3 in series [1] (288.15 K), 785.2 ± 0.5 kg/m3 in series [1] (298.15 K), 776.6 ± 0.5 kg/m3 in series [1] (308.15 K) and 767.9 ± 0.5 kg/m3 in series [1] (318.15 K). For the same compound, the refractive index in series [2] (288.15 K) is 1.3632 ± 0.0005; in series [2] (298.15 K), 1.3591 ± 0.0005; in series [2] (308.15 K), 1.3551 ± 0.0005; in series [2] (318.15 K), 1.3509 ± 0.0005.

`COCCOCCOCCOCCOC` [2,5,8,11,14-pentaoxapentadecane]: the refractive index in series [3] (288.15 K) was determined as 1.4344 ± 0.0003; in series [3] (298.15 K), 1.4303 ± 0.0003; in series [3] (308.15 K), 1.4262 ± 0.0003; in series [3] (318.15 K) it was 1.4221 ± 0.0003. Besides, the mass density in series [4] (288.15 K) is reported as 1016 ± 0.3 kg/m3; in series [4] (298.15 K), 1006.6 ± 0.3 kg/m3; in series [4] (308.15 K), 997.4 ± 0.3 kg/m3; in series [4] (318.15 K) it was 988.1 ± 0.3 kg/m3.

Take `COCCOC` [1,2-dimethoxyethane]: the refractive index in series [3] (288.15 K) was 1.3824 ± 0.0005; in series [3] (298.15 K) it was 1.3772 ± 0.0005; in series [3] (308.15 K), 1.3722 ± 0.0005; in series [3] (318.15 K), 1.3672 ± 0.0005. The mass density in series [4] (288.15 K) was determined as 872.4 ± 0.3 kg/m3; in series [4] (298.15 K), 861.5 ± 0.3 kg/m3; in series [4] (308.15 K), 850.4 ± 0.4 kg/m3; in series [4] (318.15 K) it was 839.2 ± 0.4 kg/m3.

Regarding `COCCOCCOC` [2,5,8-trioxanonane], the refractive index in series [3] (288.15 K) was found to be 1.4101 ± 0.0005; in series [3] (298.15 K) it was 1.4058 ± 0.0005; in series [3] (308.15 K), 1.4012 ± 0.0005; in series [3] (318.15 K), 1.3968 ± 0.0005. Moreover, the mass density in series [4] (288.15 K) was determined as 948.6 ± 0.3 kg/m3; in series [4] (298.15 K), 938.7 ± 0.3 kg/m3; in series [4] (308.15 K), 928.7 ± 0.3 kg/m3; in series [4] (318.15 K) it was 918.6 ± 0.3 kg/m3.
